Reference: the supplement of paper PMC10307832

Assays:
Assay in all cases: relative viability (nuclei count vs DMSO), 5 days (fraction); higher = more cells survive
[1] = compound: CN(c1ncccc1CNc1nc(Nc2ccc3c(c2)CC(=O)N3)ncc1C(F)(F)F)S(C)(=O)=O + CC(=O)c1c(C)c2cnc(Nc3ccc(N4CCNCC4)cn3)nc2n(C2CCCC2)c1=O [Palbociclib] (partner 0.5 µM)
In short: (§1)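 Nuclei were stained with Hoechst during a one-step fixation (final 0.05% Triton X-100, 1% formaldehyde, 1 ug/ml Hoechst) carried out 5 days after dosing, then counted on 4× images. The cells, lung cancer lines in 1536-well plates, had been dosed by pin tool the day after seeding with one drug alone or a fixed anchor-drug dose plus five library-drug doses (not always all listed) in √10 steps. Relative viability is the nuclei count in treated wells divided by that in vehicle wells, and each value is the median of duplicate plates.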

[2] = compound: CN(c1ncccc1CNc1nc(Nc2ccc3c(c2)CC(=O)N3)ncc1C(F)(F)F)S(C)(=O)=O + Cc1nc(NC(=O)N2CCC[C@H]2C(N)=O)sc1-c1ccnc(C(C)(C)C(F)(F)F)c1 [Alpelisib] (partner 2 µM)
In short: as §1

[3] = compound: CN(c1ncccc1CNc1nc(Nc2ccc3c(c2)CC(=O)N3)ncc1C(F)(F)F)S(C)(=O)=O + Nc1nc2[nH]cc(CCc3ccc(C(=O)N[C@@H](CCC(=O)O)C(=O)O)cc3)c2c(=O)[nH]1 [Pemetrexed] (partner 0.2 µM)
In short: as §1

[4] = compound: CN(c1ncccc1CNc1nc(Nc2ccc3c(c2)CC(=O)N3)ncc1C(F)(F)F)S(C)(=O)=O + O=C(c1cc(Cc2n[nH]c(=O)c3ccccc23)ccc1F)N1CCN(C(=O)C2CC2)CC1 [Olaparib] (partner 8 µM)
In short: as §1

| Cell Line | relative viability ([1]; first compound 0.01 µM) | relative viability ([1]; first compound 0.03162 µM) | relative viability ([1]; first compound 0.1 µM) | relative viability ([1]; first compound 0.3162 µM) | relative viability ([1]; first compound 1 µM) | relative viability ([2]; first compound 0.01 µM) | relative viability ([2]; first compound 0.03162 µM) | relative viability ([2]; first compound 0.1 µM) | relative viability ([2]; first compound 0.3162 µM) | relative viability ([2]; first compound 1 µM) | relative viability ([3]; first compound 0.01 µM) | relative viability ([3]; first compound 0.03162 µM) | relative viability ([3]; first compound 0.1 µM) | relative viability ([3]; first compound 0.3162 µM) | relative viability ([3]; first compound 1 µM) | relative viability ([4]; first compound 0.01 µM) | relative viability ([4]; first compound 0.03162 µM) | relative viability ([4]; first compound 0.1 µM) | relative viability ([4]; first compound 0.3162 µM) | relative viability ([4]; first compound 1 µM) |
| --- | --- | --- | --- | --- | --- | --- | --- | --- | --- | --- | --- | --- | --- | --- | --- | --- | --- | --- | --- | --- |
| 201T | 0.35 | 0.348 | 0.354 | 0.343 | 0.323 | 1.01 | 0.989 | 0.971 | 0.968 | 0.976 | 0.336 | 0.333 | 0.383 | 0.34 | 0.316 | 0.827 | 0.887 | 0.814 | 0.776 | 0.779 |
| A549 |  |  |  |  |  | 0.754 | 0.905 | 0.726 | 0.906 | 0.712 |  |  |  |  |  | 0.29 | 0.367 | 0.352 | 0.464 | 0.373 |
| A-427 | 0.529 | 0.491 | 0.516 | 0.546 | 0.491 | 1.09 | 1.15 | 1.02 | 1.15 | 1.08 | 0.939 | 0.956 | 0.932 | 0.955 | 0.948 | 0.752 | 0.738 | 0.651 | 0.741 | 0.651 |
| ABC-1 | 0.608 | 0.609 | 0.725 | 0.814 | 0.676 | 0.777 | 1.22 | 1.36 | 0.963 | 0.913 |  |  |  |  |  | 0.813 | 1.08 | 1.42 | 0.893 | 1.06 |
| BEN | 0.461 | 0.472 | 0.48 | 0.499 | 0.434 | 1.02 | 1.2 | 1.02 | 1.05 | 1.03 | 0.771 | 0.753 | 0.777 | 0.809 | 0.671 | 0.961 | 1.27 | 1.26 | 1.18 | 1.1 |
| CAL-12T | 0.44 | 0.341 | 0.416 | 0.407 | 0.366 | 1.12 | 1.58 | 1.26 | 1.16 | 0.946 | 1.24 | 1.12 | 1.25 | 1.36 | 0.982 | 0.766 | 0.697 | 0.619 | 0.775 | 0.636 |
| COR-L23 | 0.265 | 0.262 | 0.308 | 0.239 | 0.234 | 0.742 | 0.846 | 0.713 | 0.647 | 0.702 | 0.202 | 0.18 | 0.211 | 0.205 | 0.203 | 0.382 | 0.344 | 0.33 | 0.305 | 0.278 |
| COR-L 105 | 0.426 | 0.411 | 0.41 | 0.427 | 0.376 | 1.06 | 1.16 | 1.13 | 0.887 | 0.872 | 1.09 | 1.06 | 1.07 | 1.11 | 1.05 | 0.794 | 0.709 | 0.728 | 0.645 | 0.522 |
| Calu-6 |  |  |  |  |  | 0.914 | 0.977 | 0.903 | 1.55 | 0.765 |  |  |  |  |  | 0.581 | 0.581 | 0.535 | 0.498 | 0.453 |
